Assay [1] has as its system MDA-MB-435. In words: Cytotoxicity against human MDA-MB-435 cells after 72 hrs by MTT assay. Type of assay: functional, cell-based. Conditions: Homo sapiens, MDA-MB-435, 72 h. (In general: Formazan colour is commonly taken as a measure of viable cells.)
Assay [2] is described as follows: Cytotoxicity against human HCT8 cells after 72 hrs by MTT assay. Type of assay: functional, cell-based, HCT-8. The following applies: Homo sapiens, HCT-8, 72 h.
Assay [3] is described as follows: Cytotoxicity against human HL60 cells after 72 hrs by MTT assay. Type of assay: functional, cell-based, HL-60.
Assay [4] can be described thus: Cytotoxicity against human SF295 cells after 72 hrs by MTT assay. Type of assay: functional, cell-based, SF-295.

Structures are written as SMILES.

The term IC50 denotes the concentration at which inhibition is half-maximal. High values mean a need for much substance, low ones inhibition by little substance. For `CC(C)(C)OC(=O)NCCCNC(C1=C(O)C(=O)c2ccccc2C1=O)c1ccc([N+](=O)[O-])cc1` (stereo unspecified), the IC50 in assay [1] was > 40 µM; in assay [2], > 40 µM; in assay [3] (Homo sapiens, HL-60, 72 h) it was > 40 µM; in assay [4] (Homo sapiens, SF-295, 72 h), > 40 µM.

In the case of `O=C1C(O)=C(C(NCCCCl)c2ccccn2)C(=O)c2ccccc21` (stereo unspecified), the IC50 in assay [1] was > 40 µM; in assay [2] it was > 40 µM; in assay [3] (Homo sapiens, HL-60, 72 h) it was > 40 µM; in assay [4] (Homo sapiens, SF-295, 72 h) it was > 40 µM.

Turning to `CCCCNC(C1=C(O)C(=O)c2ccccc2C1=O)c1ccc([N+](=O)[O-])cc1` (stereo unspecified) [listing 1 of 2 here], the IC50 in assay [3] (Homo sapiens, HL-60, 72 h) is > 40 µM; in assay [4] (Homo sapiens, SF-295, 72 h), > 40 µM.

In the case of `O=C1C(O)=C(C(NCc2ccccc2)c2ccccc2O)C(=O)c2ccccc21` (stereo unspecified), the 50% inhibitory concentration (IC50) in assay [1] worked out at 18.3 µM; in assay [2] it was 14.4 µM; in assay [3] (hl-60), 4.6 µM; in assay [4] (sf-295), 11.6 µM.

For `O=C1C(O)=C(C(NCc2ccco2)c2ccccn2)C(=O)c2ccccc21` (stereo unspecified), the IC50 in assay [1] was > 40 µM; in assay [2], 4.4 µM; in assay [3] (Homo sapiens, HL-60, 72 h), 5.8 µM; in assay [4] (Homo sapiens, SF-295, 72 h) it was 3.3 µM.

For `O=C1C(O)=C(C(NCCCCl)c2ccccc2)C(=O)c2ccccc21` (stereo unspecified), the IC50 was > 40 µM in assay [1]; > 40 µM in assay [2]; > 40 µM in assay [3] (Homo sapiens, HL-60, 72 h); > 40 µM in assay [4] (Homo sapiens, SF-295, 72 h).

For the molecule `CCCCCCCCCCNC(C1=C(O)C(=O)c2ccccc2C1=O)c1cc(Br)ccc1O` (stereo unspecified), the IC50 was > 40 µM in assay [1]; > 40 µM in assay [2]; > 40 µM in assay [3] (Homo sapiens, HL-60, 72 h); > 40 µM in assay [4] (Homo sapiens, SF-295, 72 h).

For `CCCCCCCNC(C1=C(O)C(=O)c2ccccc2C1=O)c1ccccc1` (stereo unspecified), the IC50 is > 40 µM in assay [1]; > 40 µM in assay [2]; > 40 µM in assay [3] (Homo sapiens, HL-60, 72 h); > 40 µM in assay [4] (Homo sapiens, SF-295, 72 h).

On to `CCCCCCCCCCNC(C1=C(O)C(=O)c2ccccc2C1=O)c1cccc(O)c1` (stereo unspecified), for which the IC50 in assay [1] is 31.1 µM; in assay [2], 25.8 µM; in assay [3] (Homo sapiens, HL-60, 72 h), 11.9 µM; in assay [4] (Homo sapiens, SF-295, 72 h) it was > 40 µM.

In the case of `CCCCCCCNC(C1=C(O)C(=O)c2ccccc2C1=O)c1ccccn1` (stereo unspecified), the IC50 is > 40 µM in assay [1]; 1.6 µM in assay [2]; 1.8 µM in assay [3] (Homo sapiens, HL-60, 72 h); 1 µM in assay [4] (Homo sapiens, SF-295, 72 h).

As to `CC(C)(C)OC(=O)NCCNCC1=C(O)C(=O)c2ccccc2C1=O`, the IC50 in assay [1] was > 40 µM; in assay [2], > 40 µM; in assay [3] (Homo sapiens, HL-60, 72 h), > 40 µM; in assay [4] (Homo sapiens, SF-295, 72 h), > 40 µM.

As for `CC(C)(C)OC(=O)NCCNC(C1=C(O)C(=O)c2ccccc2C1=O)c1ccccc1` (stereo unspecified), the IC50 in assay [1] is > 40 µM; in assay [2] it was > 40 µM; in assay [3] (Homo sapiens, HL-60, 72 h) it was > 40 µM; in assay [4] (Homo sapiens, SF-295, 72 h), > 40 µM.

As for `CCCCNC(C1=C(O)C(=O)c2ccccc2C1=O)c1ccc([N+](=O)[O-])cc1` (stereo unspecified) [listing 2 of 2 here], the IC50 in assay [1] and in assay [2] was > 40 µM throughout.

Consider `CCCCNC(C1=C(O)C(=O)c2ccccc2C1=O)c1cccc(O)c1` (stereo unspecified), for which the IC50 is > 40 µM in assay [1]; > 40 µM in assay [2]; > 40 µM in assay [3] (Homo sapiens, HL-60, 72 h); > 40 µM in assay [4] (Homo sapiens, SF-295, 72 h).

With `COc1ccc(NC(C2=C(O)C(=O)c3ccccc3C2=O)c2ccccn2)cc1` (stereo unspecified), the IC50 in assay [1] is > 40 µM; in assay [2], > 40 µM; in assay [3] (Homo sapiens, HL-60, 72 h), > 40 µM; in assay [4] (Homo sapiens, SF-295, 72 h), > 40 µM.

On to `O=C1C(O)=C(C(NCc2ccccc2)c2ccc([N+](=O)[O-])cc2)C(=O)c2ccccc21` (stereo unspecified) [listing 1 of 2 here], for which the 50% inhibitory concentration (IC50) in assay [3] (Homo sapiens, HL-60, 72 h) was > 40 µM; in assay [4] (Homo sapiens, SF-295, 72 h) it was > 40 µM.

`CCCCCCCNC(C1=C(O)C(=O)c2ccccc2C1=O)c1ccc([N+](=O)[O-])cc1` (stereo unspecified): the IC50 in assay [1] is > 40 µM; in assay [2] it was > 40 µM; in assay [3] (Homo sapiens, HL-60, 72 h) it was > 40 µM; in assay [4] (Homo sapiens, SF-295, 72 h) it was > 40 µM.

For the molecule `CC(C)(C)OC(=O)NCCCNC(C1=C(O)C(=O)c2ccccc2C1=O)c1ccc(Cl)cc1Cl` (stereo unspecified), the IC50 in assay [1] is 16.2 µM; in assay [2], 21.2 µM; in assay [4] (Homo sapiens, SF-295, 72 h), > 40 µM.

Take `CC(C)(C)OC(=O)NCCNC(C1=C(O)C(=O)c2ccccc2C1=O)c1cccc(O)c1` (stereo unspecified): the IC50 in assay [1] was > 40 µM; in assay [2], > 40 µM; in assay [3] (Homo sapiens, HL-60, 72 h) it was > 40 µM; in assay [4] (Homo sapiens, SF-295, 72 h), > 40 µM.

`CC(C)(C)OC(=O)NCCCNCC1=C(O)C(=O)c2ccccc2C1=O`: the IC50 in assay [1] was > 40 µM; in assay [2], > 40 µM; in assay [3] (Homo sapiens, HL-60, 72 h) it was > 40 µM; in assay [4] (Homo sapiens, SF-295, 72 h), > 40 µM.

As for `CC(C)(C)OC(=O)NCCNC(C1=C(O)C(=O)c2ccccc2C1=O)c1ccc([N+](=O)[O-])cc1` (stereo unspecified), the IC50 in assay [1] was > 40 µM; in assay [2], > 40 µM; in assay [3] (Homo sapiens, HL-60, 72 h), > 40 µM; in assay [4] (Homo sapiens, SF-295, 72 h) it was > 40 µM.

Consider `O=C1C(O)=C(C(NCc2ccccc2)c2ccc([N+](=O)[O-])cc2)C(=O)c2ccccc21` (stereo unspecified) [listing 2 of 2 here], for which the IC50 in assay [1] and in assay [2] was > 40 µM in each case.

Turning to `COc1cccc2c1C(=O)c1c(O)c3c(c(O)c1C2=O)C[C@@](O)(C(=O)CO)C[C@@H]3O[C@H]1C[C@H](N)[C@H](O)[C@H](C)O1` [DOXORUBICIN], the IC50 was 0.03 µM in assay [3] (Homo sapiens, HL-60, 72 h) and 0.39 µM in assay [4] (Homo sapiens, SF-295, 72 h).

The record behind these values is ChEMBL document CHEMBL3822389, “New insights into 3-(aminomethyl)naphthoquinones: Evaluation of cytotoxicity, electrochemical behavior and search for structure-activity correlation” (Bioorg Med Chem Lett, 2016).
